# In paper PMC7546004, “Targeting BCL10 by small peptides for the treatment of B cell lymphoma” (Theranostics, 2020):
# Square brackets hold non-standard residues; d marks the D form. Peptide text beside a SMILES is read from it.
# Key:
# BCL10 = target: T1, BCL10 (Homo sapiens, UniProt O95999); test: In vitro BCL10 filamentation assay (negative-stain electron microscopy); format: biochemical; settings: MBP-BCL10 and peptide premixed at 1:1 or 1:2 molar ratio, RT 30 min, then TEV cleavage
# T1 sequence (O95999 1-233): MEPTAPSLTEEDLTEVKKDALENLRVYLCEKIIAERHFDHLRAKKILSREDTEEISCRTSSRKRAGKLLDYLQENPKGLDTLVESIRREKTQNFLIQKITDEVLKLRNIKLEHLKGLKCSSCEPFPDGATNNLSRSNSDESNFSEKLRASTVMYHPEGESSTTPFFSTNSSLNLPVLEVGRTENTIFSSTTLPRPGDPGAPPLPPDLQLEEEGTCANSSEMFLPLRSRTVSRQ
# Description: MBP-BCL10 was expressed and purified as previously described. MBP-BCL10 and BCL10 peptide inhibitors were premixed at a 1:1 or 1:2 molar ratio at RT for 30 minutes before adding TEV to cleave the MBP tag. 5 μL of reaction mixture was applied to copper grids (Beijing Zhongjingkeyi Technology Co., Cat. No. BZ10024a), where it remained for 1 minute and was then negatively stained with 3% uranyl acetate for 1 minute, air-dried and imaged with a JEM-1230 TEM at 100 keV.
# TMD8 cells = format: cell-based, human
# Description: (§1) GraphPad Prism software was used to determine GI50 values.
# DLBCL cell lines = format: cell-based; settings: Figure 6D and Figure S7D
# Description: as §1
# HBL1 cells = format: cell-based
# Description: as §1
# NF-κB signalling pathway = test: Western blot of NF-κB pathway proteins (IKKβ, p-IKKβ, IκBα, p-IκBα); format: cell-based; settings: 12 h, indicated concentrations; Figure 6E
# Description: Cell pellets were lysed in RIPA buffer (50 mM Tris at pH 8.0, 150 mM NaCl, 1% NP-40, 1 mM EDTA, and 1X protease inhibitor cocktail) or RIPA buffer containing 0.1% SDS. Equal amounts of protein extracts were separated by SDS-PAGE and blotted onto polyvinylidene difluoride (PVDF) membranes. The following Antibodies were purchased and used in this study: anti-IκBα (10268-1), anti-IKKβ (20979-1), anti-Bcl2 (12789-1-AP), anti-GAPDH (10494-1-AP), and anti-β-actin (66009-1-AP) were from Proteintech; anti-p-IκBα (2859S), anti-p-IKKβ (2697S), anti-RelB (10544), anti-α-tubulin (5335), anti-PARP (9532S), and anti-CARMA1 (4435) were from Cell Signaling Technology; anti-β-actin (A1978) was from Sigma; anti-Bcl10 (A1106) was from ABclonal; anti-A20 (sc-166692), anti-CYLD (sc-74435), and anti-MALT1 (sc-46677) were from Santa Cruz; anti-HOIL-1 (HPA024185) was from Atlas Antibodies; and anti-Myc (ab9106) was from Abcam.
# TMD8 and SU-DHL4 cells = test: Cell cycle analysis (PI, flow cytometry); format: cell-based; settings: 5 μM or 10 μM, 24 h; two independent experiments
# Description: For cell cycle analysis, cells were washed twice with cold PBS and fixed in 70% ethanol overnight at 4°C. Fixed cells were collected at 1800 rpm for 10 min and stained with PBS containing PI and DNase-free RNase A (Sigma-Aldrich) for 1h at room temperature in the dark. DNA content was measured by BD LSRII flow cytometer and data were analyzed in FloJo. […]
# Committee of Changhai Hospital, the Second Military Medical University.
# (§2) Immunohistochemistry (IHC)
# (§3) Formalin-fixed paraffin -embedded tumor xenografts were sectioned, dewaxed and submitted to antigen retrieval. The anti- Ki67 (proteintech, 27309-1) antibody was used at a 1:500 dilution.
# Biotin-conjugated secondary antibodies (MXB biotechnologies, KIT-9710) were used. Then avidin/biotin peroxidase (MXB biotechnologies, KIT-9710) was applied to the slides. Color was developed with diaminobenzoate chromogen peroxidase substrate (MXB biotechnologies, MAX007TM) and counterstained with […] (MXB biotechnologies, MAX007TM). Pictures were obtained using NanoZoomer-S60 microscope ([…]).
# [1] = system: SU-DHL6 cell xenograft tumors; test: Mouse xenograft model; format: in vivo, NCG mice; settings: DRI-BCL10-P4 10 mg/kg Q.d. or BCL10-Ctl 5 mg/kg Q.d., i.v.; n=8; p=0.049, Mann-Whitney U test
# Description: (§4) Mouse xenograft experiments:
# (§5) Six-week-old female NOD prkdc-/- IL-2Rg-/- (NCG) mice purchased from GemPharmatech Co., Lt d we re raised in a SPF- level Laboratory Animal Room. Low -passage 5x106 human TMD8, SU-DHL- 6 or 1x10^7 OCl-LY1 cells at 100μl were premixed with 100μl Matrigel (Corning Biocoat, cat. # 354234) and inoculated subcutaneously into the right flank of mice. When tumors reached an average size of 150 mm3, mice were randomly assigned into treatment groups (10 mg /kg DRI-BCL10- P4) or control groups (5 mg /kg BCL10- Ctl). Peptides were reconstituted in 5% DMSO/PBS and administered by i.v. injection. Tumor volumes were monitored by a digital caliper every other day and calculated using the formula: (smallest diameter2 x largest diameter)/2. Mice were weighed every day and sacrificed at the end of the treatment. T umors and main organs were harvested and we i ghte d at the moment of death. All animal experiments were approved by the Animal Institute Committee of Changhai Hospital, the Second Military Medical University.
# as §2, §3
# (§6) Biotin-conjugated secondary antibodies (MXB biotechnologies, KIT-9710) were used. […]
# [2] = Tolerability in xenograft mice (body weight, histology of major organs); format: in vivo, NCG mice
# Description: as §4, §5, §2, §3, §6
smiles,measurement,setting,value
CC[C@@H](C)[C@@H](NC(=O)[C@@H](CCCCN)NC(=O)[C@H](NC(=O)[C@@H](Cc1c[nH]c2ccccc12)NC(=O)[C@@H](Cc1ccccc1)NC(=O)[C@@H](CCC(N)=O)NC(=O)[C@@H](CC(N)=O)NC(=O)[C@@H](CCCNC(=N)N)NC(=O)[C@@H](CCCNC(=N)N)NC(=O)[C@@H](CCSC)NC(=O)[C@@H](CCCCN)NC(=O)[C@@H](Cc1c[nH]c2ccccc12)NC(=O)[C@@H](CCCCN)NC(=O)[C@@H](CCCCN)NC(=O)[C@@H](CCCNC(=N)N)NC(=O)[C@H](NC(=O)[C@@H](CO)NC(=O)[C@@H](CO)NC(=O)[C@@H](CCCNC(=N)N)NC(=O)[C@@H](CCCCN)NC(=O)[C@@H](CCCNC(=N)N)NC(=O)[C@@H](C)NC(=O)CNC(=O)[C@@H](CCCCN)NC(=O)[C@@H](CC(C)C)NC(=O)[C@@H](CC(C)C)NC(=O)[C@@H](CC(=O)O)NC(=O)[C@@H](Cc1ccc(O)cc1)NC(=O)[C@@H](CC(C)C)NC(=O)[C@@H](CCC(N)=O)NC(=O)[C@H](N)CCC(=O)O)[C@H](C)O)[C@H](C)CC)C(=O)N[C@H](CCC(N)=O)C(=O)N[C@H](CCCNC(=N)N)C(=O)N[C@H](CC(=O)O)C(=O)O [DRI-BCL10-P4] (H-[dE][dQ][dL][dY][dD][dL][dL][dK]G[dA][dR][dK][dR][dS][dS][dT][dR][dK][dK][dW][dK][dM][dR][dR][dN][dQ][dF][dW][dI][dK][dI][dQ][dR][dD]-OH),BCL10 filament formation (EM),BCL10,effectively disrupted BCL10 filament formation
same,GI50,TMD8 cells,11.9 ± 6.2 µM
same,"growth of CB-SMOC-dependent cell lines (HBL1, TMD8 and SU-DHL4 cells)",DLBCL cell lines,selectively suppressed the growth of CB-SMOC-dependent cell lines
same,GI50,HBL1 cells,6.78 ± 3.7 µM
same,NF-κB pathway activation in HBL1 and TMD8 cells,NF-κB signalling pathway,repressed NF-κB pathway activation
same,NF-κB pathway activation in OCI-LY1 cells,NF-κB signalling pathway,but not in OCI-LY1 cells
same,cell cycle profile of TMD8 and SU-DHL4 cells,TMD8 and SU-DHL4 cells,cell cycle arrest
same,growth of SU-DHL6 cell xenograft tumors,[1],significantly inhibited the growth
same,adverse effects in the mice (body weight),"[2]; 10 mg/kg Q.d., i.v., Figure 7C-F",without inducing notable adverse effects
same,histological examination of the major organs (H&E),"[2]; 10 mg/kg daily for 11 days, Figure S8D",did not result in discernible damage to these organs
